What was measured:
Type in all cases: cell-based
COS-1 cells [1] = assay: MTT assay (cell viability); details: for MTT.1µM / MTT.3µM / MTT.10µM / MTT.30µM: cell viability
From the text: (§1) To investigate the toxicity as a potential cause of decreased or increased activity in luciferase reporter gene assays, we tested a set of 40 active compounds in the COS-1 cell line used for the luciferase assays. Concentration-dependent toxic effects were investigated using the lactate dehydrogenase (LDH) assay to detect necrosis and the 3-(4,5-dimethylthiazol-2-yl)-2,5-diphenyltetrazolium bromide (MTT) assay as a measure of cell viability. […] For the data analysis, compounds were classified as toxic (Figures 5 and 7) if they induced a >10% decrease in cell viability in the MTT assay at the concentration of 10 μM. The most toxic compounds (35a, 35d, 54, 58, and 63–65) in the MTT assay all contained a phenyl substituent in the southern part ring, while the ortho-nitrophenyl-derivative 39g and the phenyl-substituted thiophene 47t were nontoxic. Higher flexibility in the central parts of the ethers (35a, 35d) and N-acylated amines (58, 64) might contribute to their toxicity, because less rigid compounds are more likely to have affinity to various biological targets. Such interactions can cause toxicity. To confirm and validate the results from MTT assays, we tested three nontoxic (2, 47s, and 72) and three toxic (1, 35a, and 58) compounds in a cell viability assay measuring intracellular ATP content.
(§2) Figure 5 Effects of selected compounds on COS-1 cell viability. (A) Compound-induced necrosis was quantified with the LDH assay after a 24-h compound exposure. The data are presented as cytotoxicity percentage (% of maximal LDH release). (B) Cell viability was analyzed with the MTT assay after a 24-h compound exposure. (A,B) The data are means from 2–3 independent experiments with 3 replicate wells in each and are presented as % of control (vehicle-treated cells). The compounds have been grouped on the basis of the structure of the central part: a, amide; b, ether; c, N-acylated amine; d, amine; and e, imine. (C) The effects of selected compounds on cell viability as determined by ATP content after a 24-h compound exposure. The data are mean + SEM from three independent experiments and are presented as % of vehicle-treated cells.
(§3) For toxicity screening, COS-1 cells were cultured in DMEM (Sigma-Aldrich, Steinheim, Germany) supplemented with 10% fetal bovine serum, 100 U/mL penicillin, and 100 μg/mL streptomycin (all from Gibco, Thermo Scientific) at 37 °C with 5% CO2. The cells were plated on 96-well plates at 10 000 cells/well and exposed to test compounds at a concentration range of 1–30 μM on the following day. After a 24-h compound treatment, lactate dehydrogenase (LDH) and 3-(4,5-dimethylthiazol-2-yl)-2,5-diphenyltetrazolium bromide (MTT) assays were carried out as described previously.[48] Briefly, LDH activity was determined from 50 μL samples of cell culture medium, to which 50 μL of substrate solution [1.3 mM β-nicotinamide-adenine dinucleotide, 660 μM iodonitrotetrazolium, 54 mM L(+)-lactic acid, and 280 μM phenazine methosulfate in 0.2 M Tris-HCl, pH 8.2, all from Sigma-Aldrich] was added, and the plate was incubated for 30 min at room temperature. The reaction was stopped with acetic acid (final concentration 333 mM), and absorbance was measured at 490 nm. The absorbance values of the samples were normalized to maximal LDH release and spontaneous LDH release determined on the same plate. Mitochondrial metabolic activity was quantified by incubating the cells with 0.5 mg/mL MTT (from Sigma-Aldrich) for 2 h at 37 °C with 5% CO2, whereafter culture medium was removed and formazan crystals were dissolved in DMSO. The absorbance was measured at 550 nm, and absorbance at 650 nm was subtracted as background.

[2] = biological target: T1, GATA4 transcriptional activity (Mus musculus, UniProt Q08369); assay: GATA4 luciferase reporter assay (tandem GATA-site reporter, COS-1 cells); details: for activity at 3 µM / activity at 10 µM: COS-1, luciferase reporter activity relative to control
T1 construct: expressed in transfected cells; host or cells: COS-1
Protocol: (§4) To screen compounds for the GATA4–NKX2-5 interaction, we have developed a luciferase reporter assay based on their property to activate gene transcription synergistically through the NKX2-5 binding site on DNA.[28] In this assay, we transfected mammalian COS-1 cells with protein expression vectors for GATA4 and NKX2-5 proteins together with artificial luciferase reporter vector containing three high affinity binding sites for NKX2-5 (NKE). […] All 257 compounds were tested in two concentrations, 3 and 10 μM. Compounds either inhibited, enhanced, or had no effect on the GATA4–NKX2-5 transcriptional synergy. To investigate the selectivity of the active compounds, we tested their effects on NKX2-5 transcriptional activity by using the same luciferase reporter vector as in transcriptional synergy assay with three NKE sites (Figure 3B). Furthermore, we used GATA luciferase reporter assay to examine if compounds have an effect on GATA4 transcriptional activity. In this assay, we cotransfected the cells with a GATA4 protein expression vector and a reporter vector with tandem GATA4 binding sites (Figure 3C). Previously we have reported that compound 1 inhibited the GATA4–NKX2-5 transcriptional synergy at micromolar concentrations (IC50 = 3 μM).[29]
(§5) The plasmids expressing mouse GATA4 protein, pMT2-GATA4, and empty pMT2 were gifts from D. B. Wilson (Department of Pediatrics, St. Louis Children’s Hospital, St. Louis, MO).[44] The plasmids expressing mouse NKX2-5 protein, pMT2-NKX2-5, have been described earlier.[28] The luciferase reporter plasmid used in GATA4–NKX2-5 transcriptional synergy assay and NKX transcriptional assay, pGL3-3xHA, contains three high affinity binding sites for NKX2-5.[28] The luciferase reporter plasmid used in GATA transcriptional assay, NP-112, contains tandem GATA-sites and minimal promoter of rat brain natriuretic peptide (BNP) gene.[45] The pGL3-BNP luciferase reporter containing −534/+4 bp rat BNP proximal promoter described previously was used in hypertrophy assay.[46]
(§6) The primary screening assay of compounds’ effect on GATA4–NKX2-5 transcriptional synergy and COS-1 cell culturing has been described earlier.[33] […] (Kinnunen et al., unpublished observation). Briefly, COS-1 cells were seeded at 14 000 cells/well in Isoplate-96 microplates (PerkinElmer, Turku, Finland) and grown overnight. The cells were transfected with the luciferase reporter plasmid pGL3-3xHA 100 ng/well and equal amounts of expression plasmids pMT2-GATA4 and pMT2-NKX2-5 total 50 ng/well. To verify the synergistic effect, the cells were transfected with pMT2-GATA4 or pMT2-NKX2-5 25 ng/well, and the total DNA concentration was adjusted to 50 ng/well with empty pMT2 plasmid. In NKX2-5 and GATA4 luciferase reporter assays, the cells were transfected with reporter plasmid pGL3-3xHA or NP-112 (100 ng/well) and expression plasmid pMT2-NKX2-5 or pMT2-GATA4 (25 ng/well). The ratio of DNA/transfection reagent (Fugene 6, Promega) was 1:3 in all assays. The transfections were performed in serum and antibiotics free media for 6 h. The cells were treated with compounds or vehicle (0.1% DMSO) for 24 h, and the luminescence was measured using neolite Reporter Gene Assay System (PerkinElmer, Turku, Finland) and Victor2 plate reader (PerkinElmer, Turku, Finland).
(§7) Raw luciferase data were analyzed in Excel, and clear outliers were removed from triplicates by using the Grubb’s test. Data analysis was performed using R.[49] The luciferase data were first normalized on the basis of the combined mean value of controls. For data visualization and creation of figures, the following R packages were used: ggplot2, cowplot, RColorBrewer, and pheatmap. The heatmaps of the toxicity data were produced with GraphPad Prism 7.00 (GraphPad Software, La Jolla, CA). Statistical significance of luciferase reporter assay data was evaluated by randomized block analysis of variance followed by Dunnett’s post hoc test. […]

COS-1 cells [3] = assay: LDH assay (necrosis)
From the text: as §1, §2, §3

[4] = biological target: T2, NKX2-5 transcriptional activity (Mus musculus, UniProt P42582); assay: NKX2-5 luciferase reporter assay (3xNKE reporter, COS-1 cells); details: COS-1, luciferase reporter activity relative to control; for activity at 3 µM: read-out: NKX.3µM; for activity at 10 µM: read-out: NKX.10µM
T2 construct: expressed in transfected cells; host or cells: COS-1
Protocol: as §4, §5, §6, §7

[5] = biological target: T3, GATA4–NKX2-5 transcriptional synergy (Mus musculus, UniProt P42582+Q08369); assay: GATA4–NKX2-5 transcriptional synergy luciferase reporter assay (3xNKE reporter, COS-1 cells); details: COS-1, luciferase reporter activity relative to control
T3 construct: expressed in transfected cells; host or cells: COS-1
T3 sequence (Q08369 whole entry): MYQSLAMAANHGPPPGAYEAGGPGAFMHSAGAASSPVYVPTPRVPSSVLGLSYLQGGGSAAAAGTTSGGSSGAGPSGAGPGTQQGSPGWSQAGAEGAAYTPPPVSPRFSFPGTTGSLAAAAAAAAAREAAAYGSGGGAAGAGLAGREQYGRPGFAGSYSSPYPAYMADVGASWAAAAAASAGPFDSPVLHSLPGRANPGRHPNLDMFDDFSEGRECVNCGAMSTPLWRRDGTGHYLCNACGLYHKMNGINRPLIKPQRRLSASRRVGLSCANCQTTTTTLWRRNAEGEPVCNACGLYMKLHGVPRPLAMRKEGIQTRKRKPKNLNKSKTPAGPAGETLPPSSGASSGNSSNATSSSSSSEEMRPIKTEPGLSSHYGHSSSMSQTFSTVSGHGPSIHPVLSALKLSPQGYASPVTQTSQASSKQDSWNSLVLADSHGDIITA
T3 sequence (P42582 whole entry): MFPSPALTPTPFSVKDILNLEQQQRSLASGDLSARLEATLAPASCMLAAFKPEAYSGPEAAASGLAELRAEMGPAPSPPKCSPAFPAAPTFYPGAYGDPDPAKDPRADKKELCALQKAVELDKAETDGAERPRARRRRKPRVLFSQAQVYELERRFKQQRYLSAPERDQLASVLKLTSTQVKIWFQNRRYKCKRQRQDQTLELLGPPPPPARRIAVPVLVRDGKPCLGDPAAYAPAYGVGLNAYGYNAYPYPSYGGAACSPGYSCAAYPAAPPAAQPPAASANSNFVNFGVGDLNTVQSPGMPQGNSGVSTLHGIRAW

T1 sequence (Q08369 whole entry): as the sequence (Q08369 whole entry) above
T2 sequence (P42582 whole entry): as the sequence (P42582 whole entry) above

| Compound | activity at 3 µM [2] | activity at 10 µM [2] | activity at 3 µM [4] | activity at 10 µM [4] | activity at 3 µM [5] | activity at 10 µM [5] | GATA4 (% of control) Mean ± SD ([2]; 10 μM, COS-1 cells, 24 h) | MTT.1µM (COS-1 cells [1]) | MTT.3µM (COS-1 cells [1]) | MTT.10µM (COS-1 cells [1]) | MTT.30µM (COS-1 cells [1]) | LDH.1µM (COS-1 cells [3]) | LDH.3µM (COS-1 cells [3]) | LDH.10µM (COS-1 cells [3]) | LDH.30µM (COS-1 cells [3]) | toxicity class in the MTT assay (COS-1 cells [1]; 24-h exposure, classified at 10 μM) |
| --- | --- | --- | --- | --- | --- | --- | --- | --- | --- | --- | --- | --- | --- | --- | --- | --- |
| CC(=O)N(Cc1ccc(N(C)C)cc1)c1c(-c2ccccc2)noc1C [Compound 64] | 59.6% |  | 62.1% | 44.1% | 40.2% |  |  | 98.18 | 84.51 | 77.4 | 65.98 | 0.55 | -0.52 | -0.2 | -0.49 |  |
| CCN(CC)c1ccc(NC(=O)c2c(-c3ccccc3)nnn2CCc2ccccc2)cc1 [Compound 71] | 72.5% |  | 76% | 33.6% | 75.2% | 33% |  | 103.27 | 98.93 | 94.48 | 80.74 | 0.03 | -0.62 | -0.76 | 1.31 |  |
| Cc1onc(-c2ccccc2)c1C(=O)Nc1ccc2oc(-c3ccccc3)cc(=O)c2c1 [Compound 4g] | 40.2% |  | 85.2% |  | 62.6% |  | 66 % of control | 109.72 | 101.99 | 88.31 | 82.48 | -0.29 | 0.38 | -0.94 | -0.1 |  |
| Cc1onc(-c2ccccc2)c1C(=O)Nc1ccc(C#C[Si](C)(C)C)cc1 [Compound 4j, 5-Methyl-3-phenyl-N-[4-[(trimethylsilyl)ethynyl]phenyl]isoxazole-4-carboxamide] | 110% |  | 98.2% |  | 67.8% |  |  | 104.97 | 104.95 | 102.07 |  | 1.09 | 1.13 | 0.61 | 1.5 |  |

More lines, main results first:

| activity at 3 µM [2] | activity at 10 µM [2] | activity at 3 µM [4] | activity at 10 µM [4] | activity at 3 µM [5] | activity at 10 µM [5] | GATA4 (% of control) Mean ± SD ([2]; 10 μM, COS-1 cells, 24 h) | Compound | MTT.1µM (COS-1 cells [1]) | MTT.3µM (COS-1 cells [1]) | MTT.10µM (COS-1 cells [1]) | MTT.30µM (COS-1 cells [1]) | LDH.1µM (COS-1 cells [3]) | LDH.3µM (COS-1 cells [3]) | LDH.10µM (COS-1 cells [3]) | LDH.30µM (COS-1 cells [3]) | toxicity class in the MTT assay (COS-1 cells [1]; 24-h exposure, classified at 10 μM) |
| --- | --- | --- | --- | --- | --- | --- | --- | --- | --- | --- | --- | --- | --- | --- | --- | --- |
| 103% | 81.8% | 101% | 89% | 80.7% | 93.5% |  | CCN(CC)c1ccc(NC(=O)c2c[nH]nc2-c2ccccc2)cc1 [SI89] | 100.37 | 105.87 | 100.53 | 96.92 | 2.32 | 1.68 | 1.11 | -1.15 |  |
| 95.2% |  | 56.3% |  | 65.4% |  |  | CCN(CC)c1ccc(NC(=O)c2cnoc2-c2ccccc2)cc1 [Compound 47d] | 107.01 | 95.86 | 90.87 | 93.95 | 3.03 | 0.88 | -0.44 | 0.42 |  |
| 91.4% |  | 91.1% |  | 67.6% |  |  | CCN(CC)c1ccc(NC(=O)c2cnc(SC)n2-c2ccc(F)cc2)cc1 [Compound 47z] | 102.53 | 95.99 | 96.05 | 93 | 0.94 | 1.33 | -0.3 | -0.25 |  |
| 92.4% |  | 71.1% |  |  |  |  | CCN(CC)c1ccc(NC(=O)c2snnc2-c2ccccc2)cc1 [Compound 47n] | 104.04 | 91.5 | 90.69 | 79.72 | 1.44 | 1.32 | 0.75 | 1.71 |  |
| 65.3% |  | 56.8% |  | 51.3% |  |  | CC(=O)COC(=O)c1ccc(OCc2c(-c3ccccc3)noc2C)cc1 [Compound 35d] | 81.99 | 73.26 | 64.91 | 61.12 | -0.61 | -0.5 | -0.15 | -0.05 | most toxic |
| 92.3% | 61.8% | 75.3% | 60.7% | 62.4% | 52.7% |  | CCN(CC)c1ccc(NC(=O)c2ccnn2-c2ccccc2)cc1 [SI88] | 105.89 | 89.83 | 83.67 | 88.35 | 2.08 | -0.13 | 0.07 | -1.27 |  |

Source: PMC7076710, “Synthesis, Identification, and Structure–Activity Relationship Analysis of GATA4 and NKX2-5 Protein–Protein Interaction Modulators” (Journal of Medicinal Chemistry, 2019)
